Consider 39 molecules from patent US7495018B2, “Substituted 1,3-thiazole compounds, their production and use” (Takeda Pharmaceutical Company Limited, priority 2000, dated 2009).

In general, melting point refers to the temperature of the solid-liquid transition.

For the molecule `Cc1cccc(-c2nc(-c3ccccc3)sc2-c2ccnc(C)c2)c1` [Example Compound 14-6, 4-(3-methylphenyl)-5-(2-methyl-4-pyridyl)-2-phenyl-1,3-thiazole], the melting point was 79 to 80 °C.
As to `CSc1ccc(-c2nc(-c3cccc(C)c3)c(-c3cc(C)nc(C)c3)s2)cc1` [Example Compound 16-3, 5-(2,6-dimethyl-4-pyridyl)-4-(3-methylphenyl)-2-[4-(methylthio)phenyl]-1,3-thiazole], the melting point lay in the range of 112 to 114 °C.
Turning to `CCc1nc(-c2ccc(F)cc2)c(-c2ccnc(N)c2)s1` [Example Compound 20-3, 4-[2-ethyl-4-(4-fluorophenyl)-1,3-thiazol-5-yl]-2-pyridylamine], the melting point fell in the range of 140 to 141 °C.
Take `Cc1cccc(-c2nc(N)sc2-c2ccnc(C)c2)c1` [Example Compound 7-4, [4-(3-methylphenyl)-5-(2-methyl-4-pyridyl)-1,3-thiazol-2-yl]amine]: the melting point lay in the range of 205 to 206 °C.
Then `COc1ccc(C(=O)Nc2nc(-c3cccc(C)c3)c(-c3ccnc(NC4CCCC4)c3)s2)cn1` [Example Compound 48-2, N-[5-(2-cyclopentylamino-4-pyridyl)-4-(3-methylphenyl)-1,3-thiazol-2-yl]-6-methoxynicotinamide], with 219 to 221 °C; and `CCC(=O)Nc1cc(-c2sc(C(C)OC(=O)c3ccccc3)nc2-c2cccc(Cl)c2)ccn1` (stereo not drawn) [Example 102-6, 1-[4-(3-chlorophenyl)-5-(2-propionylamino-4-pyridyl)-1,3-thiazol-2-yl]ethyl benzoate], with 124 to 127 °C.
As for `CCC(=O)Nc1cc(-c2sc(CSC)nc2-c2cccc(Cl)c2)ccn1` [Example 102-3, N-[4-[4-(3-chlorophenyl)-2-(methylthio)methyl-1,3-thiazol-5-yl]-2-pyridyl]propionamide], the melting point lay in the range of 118 to 119 °C.
The same measure for `CCc1nc(-c2cccc(C)c2)c(-c2ccnc(NC(=O)C3CCCC3)c2)s1` [Example Compound 29-1, N-[4-[2-ethyl-4-(3-methylphenyl)-1,3-thiazol-5-yl]-2-pyridyl]cyclopentanecarboxamide]: 123 to 125 °C.
In turn, `CSc1ccc(-c2nc(-c3cccc(C)c3)c(-c3ccnc(F)c3)s2)cc1` [Example Compound 15, 5-(2-fluoro-4-pyridyl)-4-(3-methylphenyl)-2-[4-(methylthio)phenyl]-1,3-thiazole] registered a melting point of 97 to 100 °C.
`CCCc1nc(-c2cccc(Cl)c2)c(-c2ccnc(N)c2)s1` [Example Compound 21-1, 4-[4-(3-chlorophenyl)-2-propyl-1,3-thiazol-5-yl]-2-pyridylamine]: the melting point was 99 to 100 °C.
The same measure for `CCc1nc(-c2ccc(SC)cc2)c(-c2ccnc(N)c2)s1` [Example Compound 20-5, 4-[2-ethyl-4-[4-(methylthio)phenyl]-1,3-thiazol-5-yl]-2-pyridylamine]: 119 to 120 °C; for `Cc1cccc(-c2nc(N(C)C(=O)c3ccc(C)nc3)sc2-c2ccnc(NC3CCCC3)c2)c1` [Example Compound 46-4, N-[5-(2-cyclopentylamino-4-pyridyl)-4-(3-methylphenyl)-1,3-thiazol-2-yl]-N,6-dimethylnicotinamide]: 117 to 118 °C.
For the molecule `Cc1cc(C)cc(-c2nc(NC(=O)Nc3ccccc3)sc2-c2cc(C)nc(C)c2)c1` [Example Compound 53-1, N-[4-(3,5-dimethylphenyl)-5-(2,6-dimethyl-4-pyridyl)-1,3-thiazol-2-yl]-N′-phenylurea], the melting point was 219 to 222 °C.
For `Cc1cccc(-c2nc(-c3ccc(F)cc3F)sc2-c2ccnc(C)c2)c1` [Example Compound 14-5, 2-(2,4-difluorophenyl)-4-(3-methylphenyl)-5-(2-methyl-4-pyridyl)-1,3-thiazole], the melting point lay in the range of 90 to 91 °C.
For `CCc1nc(-c2ccc(F)c(C)c2)c(-c2ccnc(N)c2)s1` [Example Compound 20-9, 4-[2-ethyl-4-(4-fluoro-3-methylphenyl)-1,3-thiazol-5-yl]-2-pyridylamine], the melting point lay in the range of 134 to 135 °C.
`CCOC(=O)c1nc(-c2cccc(C)c2)c(-c2ccnc(C)c2)s1` [Example Compound 14-12, Ethyl [4-(3-methylphenyl)-5-(2-methyl-4-pyridyl)-1,3-thiazol-2-yl]carboxylate] gave a melting point of 97 to 98 °C.
As for `Cc1cccc(-c2nc(-c3ccccc3Cl)sc2-c2ccnc(C)c2)c1` [Example Compound 14-1, 2-(2-chlorophenyl)-4-(3-methylphenyl)-5-(2-methyl-4-pyridyl)-1,3-thiazole], the melting point was 83 to 84 °C.
Regarding `Cc1cccc(-c2nc(C(=O)O)sc2-c2ccnc(C)c2)c1` [Example Compound 25-2, 5-(2-methyl-4-pyridyl)-4-(3-methylphenyl)-1,3-thiazole-2-carboxylic acid], the melting point lay in the range of 135 to 136 °C.
The same measure for `CSc1ccc(-c2nc(-c3cc(C)cc(C)c3)c(-c3ccnc(C)c3)s2)cc1` [Example Compound 16-2, 4-(3,5-dimethylphenyl)-5-(2-methyl-4-pyridyl)-2-[4-(methylthio)phenyl]-1,3-thiazole]: 123 to 125 °C.
The same measure for `Cc1cccc(-c2nc(NC(=O)c3cccnc3)sc2-c2ccnc(C)c2)c1` [Example Compound 41, N-[4-(3-methylphenyl)-5-(2-methyl-4-pyridyl)-1,3-thiazol-2-yl]nicotinamide]: 175 to 178 °C.
In turn, `Cc1cccc(-c2nc(N(C)C(=O)c3cccnc3)sc2-c2ccnc(NC3CCCC3)c2)c1` [Example Compound 42-9, N-[5-(2-cyclopentylamino-4-pyridyl)-4-(3-methylphenyl)-1,3-thiazol-2-yl]N-methylnicotinamide] had a melting point of 148 °C.
The molecule `CC(=O)Nc1nc(-c2cccc(C)c2)c(-c2cc(C)nc(C)c2)s1` [Example Compound 40-2, N-[5-(2,6-dimethyl-4-pyridyl)-4-(3-methylphenyl)-1,3-thiazol-2-yl]acetamide] showed a melting point of 185 to 187 °C.
`CSCCc1nc(-c2cccc(Cl)c2)c(-c2ccnc(N)c2)s1` had a melting point of 96 to 97 °C.
The same measure for `CCc1nc(-c2cccc(C(C)C)c2)c(-c2ccnc(N)c2)s1` [Example Compound 20-10, 4-[2-ethyl-4-[3-(1-methylethyl)phenyl]-1,3-thiazol-5-yl]-2-pyridylamine]: 80 to 81 °C; for `Cc1cccc(-c2nc(NC(=O)c3ccc(Cl)nc3)sc2-c2ccnc(NC3CCCC3)c2)c1` [Example Compound 44-2, 6-chloro-N-[5-(2-cyclopentylamino-4-pyridyl)-4-(3-methylphenyl)-1,3-thiazol-2-yl]nicotinamide]: 211 to 212 °C; for `CCc1nc(-c2ccc(F)cc2)c(-c2ccnc(NC(C)=O)c2)s1` [Example 82-2, N-[4-[2-ethyl-4-(4-fluorophenyl)-1,3-thiazol-5-yl]-2-pyridyl]acetamide]: 190 to 191 °C.
Then `CNc1nc(-c2cccc(C)c2)c(-c2ccnc(NC3CCCC3)c2)s1` [Example Compound 36-3, N-methyl-[5-(2-cyclopentylamino-4-pyridyl)-4-(3-methylphenyl)-1,3-thiazol-2-yl]amine], with 170 to 172 °C.
As to `Cc1cccc(-c2nc(-c3ccc(S(C)(=O)=O)cc3)sc2-c2ccnc(NCC3CCCCC3)c2)c1` [Example Compound 37-3, N-cyclohexylmethyl-4-[4-(3-methylphenyl)-2-(4-methylsulfonylphenyl)-1,3-thiazol-5-yl]-2-pyridylamine], the melting point fell in the range of 157 to 159 °C.
On to `CC(=O)Nc1cc(-c2sc(C(C)=O)nc2-c2cccc(Cl)c2)ccn1` [Example 112, N-[4-[2-acetyl-4-(3-chlorophenyl)-1,3-thiazol-5-yl]-2-pyridyl]acetamide], for which the melting point is 180 to 183 °C.
Then `CCC(=O)Nc1cc(-c2sc(C3CCNCC3)nc2-c2cccc(Cl)c2)ccn1.Cl.Cl`, with 202 to 203 °C.
In turn, `CC(=O)Nc1cc(-c2sc(C(C)OC(=O)c3ccccc3)nc2-c2cccc(C)c2)ccn1` (stereo not drawn) [Example 110, 1-[5-(2-acetylamino-4-pyridyl)-4-(3-methylphenyl)-1,3-thiazol-2-yl]ethyl benzoate] had a melting point of 110 to 113 °C.
Then `Cc1cccc(-c2nc(NC(=O)c3ccc(C)nc3)sc2-c2ccnc(C)c2)c1` [Example Compound 45, 6-methyl-N-[4-(3-methylphenyl)-5-(2-methyl-4-pyridyl)-1,3-thiazol-2-yl]nicotinamide], with 233 to 234 °C.
The same measure for `CC(=O)Nc1cc(-c2sc(C)nc2-c2cccc(Cl)c2)ccn1` [Example Compound 30-1, N-[4-[4-(3-chlorophenyl)-2-methyl-1,3-thiazol-5-yl]-2-pyridyl]acetamide]: 112 to 115 °C; for `CSCc1nc(-c2cccc(Cl)c2)c(-c2ccnc(N)c2)s1`: 111 to 112 °C; for `CCCc1nc(-c2cccc(C)c2)c(-c2ccnc(N)c2)s1` [Example Compound 18-4, 4-[4-(3-methylphenyl)-2-propyl-1,3-thiazol-5-yl]-2-pyridylamine]: 113 to 115 °C.
The molecule `CSc1ccc(-c2nc(-c3cccc(Cl)c3)c(-c3ccnc(NC(=O)C(C)(C)C)c3)s2)cc1` [Example Compound 30-12, N-[4-[4-(3-chlorophenyl)-2-[4-(methylthio)phenyl]-1,3-thiazol-5-yl]-2-pyridyl]pivalamide] gave a melting point of 119 to 120 °C.
The molecule `CCC(=O)Nc1cc(-c2sc(CC)nc2-c2cccc(F)c2)ccn1` [Example 84-5, N-[4-[2-ethyl-4-(3-fluorophenyl)-1,3-thiazol-5-yl]-2-pyridyl]propionamide] yielded a melting point of 121 to 122 °C.
`COc1ccc(-c2nc(NC(=O)c3ccccc3)sc2-c2ccnc(N)c2)cc1` [Example Compound 51, N-[5-(2-amino-4-pyridyl)-4-(4-methoxyphenyl)-1,3-thiazol-2-yl]benzamide] gave a melting point of 219 to 222 °C.
Then `CCc1nc(-c2cccc(C(F)(F)F)c2)c(-c2ccnc(NC(C)=O)c2)s1` [Example 82-3, N-[4-[2-ethyl-4-(3-trifluoromethylphenyl)-1,3-thiazol-5-yl]-2-pyridyl]acetamide], with 146 to 147 °C.
